Test results reported in PubChem BioAssay (NCI).
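48-hour exposure; five concentrations; linearly interpolated endpoints. At the GI50, growth is halved. The concentration for full growth arrest is given as TGI.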

Experiments:
Experiment in all cases: NCI-60 cell line screen, 48 h
NCI-H23 lung = tested on: NCI-H23 lung
HCC-2998 colon = tested on: HCC-2998 colon
NCI-H522 lung = tested on: NCI-H522 lung
K-562 leukemia = tested on: K-562 leukemia
SN12C renal = tested on: SN12C renal
NCI-H460 lung = tested on: NCI-H460 lung
A549 NSCLC = tested on: A549 NSCLC
OVCAR-5 ovarian = tested on: OVCAR-5 ovarian
MALME-3M melanoma = tested on: MALME-3M melanoma
786-0 renal = tested on: 786-0 renal

SMILES	GI50 (NCI-H23 lung)	TGI (NCI-H23 lung)	GI50 (HCC-2998 colon)	TGI (HCC-2998 colon)	GI50 (NCI-H522 lung)	TGI (NCI-H522 lung)	GI50 (K-562 leukemia)	TGI (K-562 leukemia)	GI50 (SN12C renal)	TGI (SN12C renal)	GI50 (NCI-H460 lung)	TGI (NCI-H460 lung)	GI50 (A549 NSCLC)	TGI (A549 NSCLC)	GI50 (OVCAR-5 ovarian)	TGI (OVCAR-5 ovarian)	GI50 (MALME-3M melanoma)	TGI (MALME-3M melanoma)	GI50 (786-0 renal)	TGI (786-0 renal)
Nc1n[nH]c2ccc([C@@H]3Nc4ccc5[nH]ncc5c4[C@H]4C5C=CC(C5)[C@@H]34)cc12 (stereo partly specified)	0.446 µM	14 µM	0.378 µM	12.1 µM	0.173 µM	12.7 µM	0.0992 µM	> 100 µM	0.52 µM	28.2 µM	0.365 µM	11.4 µM	0.444 µM	> 85.2 µM	0.586 µM	30.3 µM	0.655 µM	35.3 µM	0.6 µM	16.8 µM
O=C(CCc1cc(-c2ccccc2)nc(=S)[nH]1)Nc1ccccc1[N+](=O)[O-]	–	> 100 µM	–	> 100 µM	–	> 100 µM	–	> 100 µM	–	> 100 µM	–	> 100 µM	–	> 100 µM	–	> 100 µM	–	> 100 µM	–	> 100 µM
CS(=O)(=O)Nc1ccc(N=Cc2c(O)[nH]c3ccccc23)cc1	> 25 µM	> 25 µM	> 25 µM	> 25 µM	> 25 µM	> 25 µM	> 25 µM	> 25 µM	> 25 µM	> 25 µM	> 25 µM	> 25 µM	> 25 µM	> 25 µM	> 25 µM	> 25 µM	> 25 µM	> 25 µM	> 25 µM	> 25 µM
CS/C(C)=N/OC(=O)NCCCCNc1ccc(N=[N+]=[N-])cc1	–	> 100 µM	–	56.1 µM	–	23.7 µM	–	> 100 µM	–	> 100 µM	–	> 100 µM	–	> 100 µM	–	> 100 µM	–	> 100 µM	–	> 100 µM
CN(C(=O)c1ccncc1)c1ccccc1	–	> 100 µM	–	> 100 µM	–	> 100 µM	–	> 100 µM	–	> 100 µM	–	> 100 µM	–	> 100 µM	–	> 100 µM	–	> 100 µM	–	> 100 µM
CSC1(SC2=NCCN2)SC2(NCCN2)S1	–	33.4 µM	–	29.8 µM	–	27.1 µM	–	81.2 µM	–	41.4 µM	–	45.4 µM	–	40.1 µM	–	39.6 µM	–	34.3 µM	–	14.2 µM
O=C(COc1cccc(/C=C2\COc3ccc(Cl)cc3C2=O)c1)c1ccc(Cl)cc1	13.4 µM	26.4 µM	3.71 µM	15.1 µM	11.7 µM	27.2 µM	2.67 µM	> 100 µM	13.7 µM	28.5 µM	15.8 µM	30.1 µM	16.3 µM	32.1 µM	13 µM	25.8 µM	17.9 µM	34.2 µM	16.1 µM	29.7 µM
COc1cc(/C=C/C(=O)c2sc(NNC(C)=O)nc2C)ccc1O	–	> 100 µM	–	> 100 µM	–	> 100 µM	–	> 100 µM	–	> 100 µM	–	> 100 µM	–	> 100 µM	–	> 100 µM	–	> 100 µM	–	> 100 µM
CC(C)(C#N)c1cc(C(=O)Nc2cc(Nc3ncccc3-c3ncnc4nc[nH]c34)ccc2F)cc(C(F)(F)F)c1	0.514 µM	> 4.14 µM	0.372 µM	–	–	> 6.56 µM	0.345 µM	> 10 µM	1.42 µM	> 10 µM	1.18 µM	> 3.27 µM	–	> 10 µM	0.224 µM	> 2.86 µM	0.0648 µM	0.234 µM	–	> 6.73 µM
Cn1cc(-c2ccc(-c3cn(C)c4ccc(Cl)cc34)s2)c2cc(Cl)ccc21	> 100 µM	> 100 µM	> 100 µM	> 100 µM	> 100 µM	> 100 µM	> 100 µM	> 100 µM	> 100 µM	> 100 µM	> 100 µM	> 100 µM	> 100 µM	> 100 µM	> 100 µM	> 100 µM	> 100 µM	> 100 µM	> 100 µM	> 100 µM
O=C(CN1CCN(c2ccccc2)CC1)N1CCN(c2nnc(-c3ccc(Cl)cc3)c(-c3ccc(Cl)cc3)n2)CC1	23.4 µM	> 100 µM	16.9 µM	> 100 µM	10.7 µM	66.6 µM	3.32 µM	> 100 µM	13 µM	> 100 µM	7.92 µM	> 100 µM	9.86 µM	> 100 µM	> 100 µM	> 100 µM	9.35 µM	> 100 µM	11.6 µM	53 µM
c1ccc(CSc2nnc3c4ccccc4c4ccccc4c3n2)cc1	–	> 100 µM	–	> 100 µM	–	97.9 µM	–	> 100 µM	–	> 100 µM	–	> 100 µM	–	> 100 µM	–	> 100 µM	–	> 100 µM	–	> 92.5 µM
CCCCNC(=O)NS(=O)(=O)c1ccc(N2N=C(c3cc(C)ccc3C)CC2c2cc(OC)c(OC)c(OC)c2)cc1 (stereo unspecified)	2.35 µM	6.22 µM	2.32 µM	4.84 µM	2.39 µM	7.75 µM	3.14 µM	12.7 µM	3.36 µM	13.4 µM	2.46 µM	5.96 µM	2.53 µM	9.78 µM	3.39 µM	11.9 µM	2.4 µM	6.83 µM	3.51 µM	16.1 µM
COc1ccc2c(c1)C(C)Cc1c(Cl)nc(C)nc1N2C (stereo unspecified)	3.48 µM	37.2 µM	2.29 µM	8.93 µM	0.763 µM	5.92 µM	0.713 µM	> 100 µM	7.22 µM	25.1 µM	3.09 µM	15.4 µM	3 µM	24.4 µM	5.91 µM	> 100 µM	12.4 µM	37.8 µM	3.94 µM	32 µM
COc1cc(C2CC(c3ccc(N(C)C)cc3)=NN2C(C)=O)cc(OC)c1OC (stereo unspecified)	4.33 µM	> 67 µM	2.61 µM	27.1 µM	1.95 µM	> 27.1 µM	1.74 µM	> 100 µM	11.3 µM	> 100 µM	1.41 µM	> 100 µM	3.36 µM	> 100 µM	> 27.8 µM	> 100 µM	> 100 µM	> 100 µM	2.36 µM	> 78 µM
O=C(N/N=C/c1cc([N+](=O)[O-])ccc1O)c1cccc2ccccc12	4.68 µM	> 100 µM	5.3 µM	> 100 µM	3.47 µM	22 µM	3.26 µM	> 100 µM	6.62 µM	> 100 µM	2.75 µM	> 100 µM	4.56 µM	> 100 µM	6.2 µM	> 100 µM	3.12 µM	21.7 µM	3.29 µM	27.7 µM
Cn1ccnc1C(=O)/C=C/c1ccc(CC(=O)Nc2ccc(C(F)(F)F)cc2)cc1	3.28 µM	6.9 µM	2.87 µM	5.44 µM	3.35 µM	6.39 µM	0.614 µM	> 16.7 µM	4.32 µM	> 16.7 µM	2.99 µM	9.42 µM	3.82 µM	10.3 µM	2.45 µM	5.21 µM	3.95 µM	10.7 µM	1.81 µM	4.07 µM
CSc1ccccc1C#Cc1ccccc1C#CCCCCO	15.7 µM	33 µM	10 µM	22.9 µM	14.2 µM	29.4 µM	6.19 µM	54.4 µM	16 µM	30.7 µM	8.64 µM	22.2 µM	12.6 µM	27.1 µM	13.6 µM	32.2 µM	15.2 µM	36.5 µM	11 µM	26.6 µM
